Assay results taken from patent US6423744B1, “Method of diminishing the adverse effects of interleukin-2” (Biomedicines, Inc., priority 1998, dated 2002).

Columns and labels:
LTB4 chemotaxis [1] = assay: Inhibition of LTB4 chemotaxis (in vitro); assay type: cell-based
[2] = system: human neutrophil adhesion to LTB4-stimulated umbilical vein endothelial cells; assay: Inhibition of human neutrophil adhesion to LTB4-stimulated umbilical vein endothelial cells; assay type: cell-based
[3] = system: LTB4-induced neutrophil granulation; assay: Inhibition of LTB4-induced neutrophil granulation; assay type: cell-based
LTB4 synthesis = assay: Inhibition of LTB4 synthesis; assay type: biochemical
[4] = system: LTA4 conversion into LTB4; assay: Inhibition of LTA4 conversion into LTB4; assay type: biochemical
LTB4 chemotaxis [5] = assay: Inhibition of LTB4 chemotaxis in guinea pigs; assay type: in vivo; conditions: Cavia porcellus, po; i.g.
12 (R)-HETE = assay: Inhibition of 12 (R)-HETE in guinea pigs; assay type: in vivo; conditions: Cavia porcellus, po; i.g.
[6] = system: acetic acid colonic inflammation; assay: Inhibition of acetic acid colonic inflammation; assay type: in vivo; conditions: Rattus norvegicus, po; i.g.; read-out: Inhibition of acetic acid colonic inflammation in rats and guinea pig, ED50
[7] = system: calcium ionophore dermal inflammation; assay: Inhibition of calcium ionophore dermal inflammation in the guinea pig ear; conditions: in vivo
[8] = Biomed 101 plasma levels in rats (HPLC); assay type: in vivo, Sprague Dawley rats; conditions: rat
Protocol: In animals dosed with Biomed 101, plasma levels of Biomed 101 were assayed with a validated, high-pressure liquid chromatographic method.

[9] = system: B16/BL6 murine melanoma tumor cells; assay: Murine model of B16 melanoma lung metastases (Example 5); assay type: in vivo
Protocol: The B16/BL6 murine melanoma tumor cells for injection were obtained from in vitro culture. Mice were inoculated with 3×10^5 cells intravenously on Day 0.
Tumor cells were injected on Day 0. […] An additional group of 15 untreated control mice was used for timing the termination of the study. At Day 10, three untreated control mice were to be euthanized each day until tumor burden was determined to be optimal for counting metastatic foci, at which time the remaining rumored and five non-rumored mice were to be euthanized and lungs removed for determination of body weights, lung weights and numbers of metastatic foci.
Anti-tumor activity was assessed by counts of metastatic foci in the lungs. Comparison among the three treatment groups (Groups 1, 2 and 3) was performed using one-way ANOVA (or Kruskal-Wallis one-way analysis of variance on ranks for data with non-normal distribution) with the three between-group comparisons performed using adjustment for multiple comparisons.

[10] = assay type: in vivo; conditions: intraperitoneal, bid for 4 days, tumored mice treated with IL-2; preliminary study
renal cell carcinoma [11] = assay: Clinical trial of LA plus IL-2 in patients with renal cell carcinoma (Example 6); assay type: in vivo, human
Protocol: A preferred LA compound (as defined in Example 3) from drug substance lot # BA901 was supplied as 25 mg capsules Batch # 99G111 by BioMedicines, Inc. Each hard gelatin capsule contained 25 mg LA plus excipients including lactose hydrous NF; hydroxypropylmethylcellulose 2910, 6 cps USP; sodium lauryl sulfate NF; purified water, USP; and sodium chloride.
Patients received IL-2 600,000 IU/kg by intravenous bolus three times daily during 5 days for a planned total of 14 doses. LA was administered orally 1 hour prior to each schedule dose of IL-2 as well as 8 hours after the final scheduled dose. If dose of IL-2 was withheld because of IL-2 induced toxicity, dosing with LA continued. Doses of LA ranged from 25 mg three times daily (TID) to 75 mg TID. Plasma levels of LA were obtained at each dose level.
The principal activity endpoint was the relationship between the total number of doses of IL-2 that could be administered and well tolerated by patients and the plasma levels of LA. A second endpoint was the response rate in patients of the tumor to the combination therapy with the leukotriene B4 receptor antagonist and IL-2 as judged by complete responses (total disappearance of measurable tumor) or partial responses (a ≧50% decrease in measurable tumor volume).
Data were analyzed by examining the significance of the correlation between number of doses of IL-2 and LA plasma level (Spearman's rho).

[12] = system: IL-2-induced reduction in oxygenation; conditions: rat
Protocol: Animals were weighed on the day of dosing and the appropriate doses of IL-2 and/or LA were calculated. The animals remained conscious throughout the experiment until an anesthetic was administered approximately 10 minutes before exsanguination. The anesthetic consisted of a mixture of ketamine (45 mg/ml) xylazine (2.5 mg/ml), and acepromazine (0.37 mg/ml) diluted with water and administered subcutaneously at a dose of 2.0 ml/kg.
Group 1 (n=14) consisted of control animals that received both i.v. and i.p. injections of vehicle. The other five groups received i.v. injections of IL-2 via the tail vein. Groups 2 (n=8), 3 (n=4), and 4 (n=10) received IL-2 in doses of 1.5, 6.0, and 12.5 million IU(MIU)/kg, respectively. In addition to 12.5 million IU/kg of IL-2, Groups 5 (n=8) and 6 (n=13) received i.p. injections of the LA. The LA was administered in two equal, divided doses; the first dose of LA was given 20 minutes before administration of IL-2 and the second dose was given 50 minutes after administration of IL-2. Group 5 was administered 2×10 mg/kg of the LA. Group 6 was administered 2×30 mg/kg of the LA.
Two hours after the IL-2 injection, the animals were exsanguinated via the abdominal aorta and the arterial blood was collected for measurement of PaO2.
Whole arterial blood was collected into heparinized blood arterial gas syringes. Immediately after collection, the blood sample was analyzed using PaO2 electrode model DO-166FT. Sample blood was pre-oxygenated and used as a standard before and after each test sample.
Data are shown as mean±SEM. Data were analyzed using the Tukey-Kramer test (JMP® statistical software from SAS, Inc.) Significance was defined as a p-value less than 0.05.

IL-2-induced toxicity [13] = assay: Rat model of IL-2-induced toxicity, PaO2 (Example 4); conditions: Biomed 101 (20 or 60 mg/kg total i.p.) with IL-2 12.5 MIU/kg
Protocol: (§1) Six groups of animals were studied (total N=59). […] The animals remained conscious throughout the experiment until an anesthetic was administered approximately 10 minutes before planned exsanguination. The anesthetic consisted of a mixture of ketamine (45 mg/ml), xylazine (2.5 mg/ml), and acepromazine (0.37 mg/ml) diluted with water and administered subcutaneously at a dose of 2.0 ml/kg.
(§2) IL-2 or IL-2 vehicle was administered by bolus injection via the tail vein. […] Two hours after the injection of IL-2 or IL-2 vehicle, animals were exsanguinated via the abdominal aorta and the arterial blood was collected for measurement of PaO2.
(§3) Group 1 (n=13) consisted of control animals that received injections of each vehicle, either i.v. or i.p. as appropriate. The other five groups received i.v. bolus injections of IL-2 via the tail vein. Groups 2 (n=8), 3 (n=5), and 4 (n=13) received IL-2 in doses of 1.5, 6.0, and 12.5 million IU/kg, respectively.
The study was conducted in two phases.
(§4) Whole arterial blood was collected into heparinized syringes. Immediately after collection, the blood sample was analyzed using a Lazar Research Laboratories flow-through dissolved-oxygen probe. The cell temperature was set to 37 degrees centigrade. A syringe pump was set to 0.5 ml/min to introduce the sample. The cell was zeroed using a solution of heparin and isotonic saline equilibrated with 100% nitrogen. The cell was then calibrated using a solution of heparin and isotonic saline equilibrated with 20% oxygen. After each PaO2 determination in whole blood was made, the cell was washed with heparin ad isotonic saline. A 20% O2 standard was introduced before each sample to ensure accurate and reliable measurements.
(§5) If the data appeared to be normally distributed, the comparison was to be made using Student's t-test.

IL-2-induced toxicity [14] = conditions: rat, in vivo
Protocol: as §1, §2, §3
The study was conducted in two phases.
as §4, §5

renal cell carcinoma [15] = conditions: IL-2 treatment alone; cited from earlier work

CCCc1c(OCCCOc2ccc(C(C)=O)c(OC)c2CCC)ccc2c1OC(C(=O)O)CC2 (racemic) [Biomed 101, (±)7-[3-(4-acetyl-3-methoxy-2-propylphenoxy)propoxy]-3,4-dihydro-8-propyl-2H-1-benzopyran-2-carboxylic acid]
Inhibition of LTB4 chemotaxis, range (LTB4 chemotaxis [1]): 0.3 to 3.0 µM
Inhibition of human neutrophil adhesion to LTB4-stimulated umbilical vein endothelial cells, range [2]: 0.3 to 1.0 µM
Inhibition of LTB4-induced neutrophil granulation, range [3]: 1 to 3 µM
IC50 (LTB4 synthesis): 2.1 µM
IC50 [4]: 20 µM
ED50 (LTB4 chemotaxis [5]): 0.6 mg/kg
ED50 (12 (R)-HETE): 20 mg/kg
ED50 [6]: 20 mg/kg
Inhibition of calcium ionophore dermal inflammation in the guinea pig ear, ED50 [7]: 0.7 mg/ear
mean plasma level (± standard error of the mean) of Biomed 101 ([8]; 20 mg/kg Biomed 101 i.p. (2×10 mg/kg)): 2.0 (±0.26) μg/ml
mean plasma level (± standard error of the mean) of Biomed 101 ([8]; 60 mg/kg Biomed 101 i.p. (2×30 mg/kg)): 6.4 (±0.89) μg/ml
Number of lung mets Mean (± SEM) ([9]; Day 10, IL-2 1 mg/kg iv, Biomed 101 25 mg/kg ip with IL-2, q6hx2, qdx4, vehicle control 98): 56
effect of coadministration on the anti-tumor activity of IL-2 ([9]; mice, Biomed 101 25 mg/kg ip with IL-2): fully preserves and may enhance
highest tolerated dose [10]: 25 mg/kg bid
number of doses of IL-2 withheld because of IL-2 toxicity as plasma level of LA increased (renal cell carcinoma [11]): decreased
total number of doses of IL-2 well tolerated as LA dose and plasma level rose (renal cell carcinoma [11]): rose
plasma level of LA with total daily dose (renal cell carcinoma [11]; 25 mg TID to 75 mg TID orally): increased
effect of LA on the reduction in oxygenation induced by IL-2 ([12]; LA 2×10 or 2×30 mg/kg i.p. with IL-2 12.5 MIU/kg i.v., p>0.5 vs control, p<0.001 vs IL-2 alone): mitigated
Median PaO2 versus IL-2 alone (IL-2-induced toxicity [13]): significantly higher
Median PaO2 versus control animals (IL-2-induced toxicity [13]): not significantly different

des-alanyl-1, serine-125 human interleukin-2 [IL-2]
Median Lung Weight ([9]; Day 10, vehicle control 174): 177 mg
lung weights compared with vehicle control ([9]; Kruskal-Wallis): did not decrease
deaths ([9]; mice, Group 2, IL-2 1 mg/kg iv, Day 4): one death
Changes in Metastases (mean) (N) ([9]; treated group compared with control (untreated) group): −32 N
arterial oxygen level (PaO2), mean±SEM ([12]; in vivo, iv): 77.5±2.5 mm Hg
effect of progressively higher doses on arterial oxygen levels ([12]; in vivo, iv): progressively reduced
Change in Oxygen (mean) (mm Hg) (IL-2-induced toxicity [14]): −15 mm Hg
decrease of mean PaO2 for each increase of 1 MIU/kg in IL-2 administered (IL-2-induced toxicity [14]): approximately 1.8 mm Hg
effect on PaO2 (IL-2-induced toxicity [14]): significant fall
objective response rate historically noted (renal cell carcinoma [15]): 8-10%
